Measurements published in ChEMBL document CHEMBL1201862, “PubChem BioAssay data set” (2004).
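A five-concentration, 48-hour dose response in 96-well plates underlies each endpoint, interpolated linearly between surrounding concentrations. GI50 marks 50% less growth.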 The source made the active and inactive calls. Rule as the data show it: active = GI50 up to about 1.1 µM and inactive = higher.

Tests used:
Experiment in all cases: NCI-60 cell line screen, 48 h
LXFL 529 = tested on: LXFL 529
DMS-273 = tested on: DMS-273
DLD-1 = tested on: DLD-1
XF498 = tested on: XF498
HOP-18 = tested on: HOP-18
KM-20L2 = tested on: KM-20L2
SNB-78 = tested on: SNB-78
RXF 631 = tested on: RXF 631
DMS-114 = tested on: DMS-114

| SMILES | GI50 (LXFL 529) | GI50 (DMS-273) | GI50 (DLD-1) | GI50 (XF498) | GI50 (HOP-18) | GI50 (KM-20L2) | GI50 (SNB-78) | GI50 (RXF 631) | GI50 (DMS-114) |
| --- | --- | --- | --- | --- | --- | --- | --- | --- | --- |
| O=c1c(NO)c([N+](=O)[O-])cnn1-c1ccccc1 | 1.76 µM (inactive) | 3.26 µM (inactive) | 3.6 µM (inactive) | 3.41 µM (inactive) | 22.1 µM (inactive) | 7.19 µM (inactive) | 16.9 µM (inactive) | 2.48 µM (inactive) | 15.8 µM (inactive) |
| Cc1ccc(NC(=O)CC2C(=O)Nc3ccccc3S2(=O)=O)cc1C (stereo not given) | > 100 µM (inactive) | > 100 µM (inactive) | > 100 µM (inactive) | > 100 µM (inactive) |  | > 100 µM (inactive) | > 100 µM (inactive) | > 100 µM (inactive) | > 100 µM (inactive) |
| C=CC1(CC)/C(=N\O)C(CC)(CC)C(=O)N1O (stereo not given) | > 100 µM (inactive) | > 100 µM (inactive) | > 100 µM (inactive) | 48.9 µM (inactive) |  | > 100 µM (inactive) | > 100 µM (inactive) |  | > 100 µM (inactive) |
| O=c1ccn([C@H]2CSC[C@@H](CO)C2)c(=O)[nH]1 | > 100 µM (inactive) | > 100 µM (inactive) | > 100 µM (inactive) |  | > 100 µM (inactive) | > 100 µM (inactive) | > 100 µM (inactive) | > 100 µM (inactive) | > 100 µM (inactive) |
| Cc1c(-c2nnc(-c3ccccc3)o2)c(=O)n(-c2ccccc2)n1C | > 100 µM (inactive) | > 100 µM (inactive) | > 100 µM (inactive) | > 100 µM (inactive) | > 100 µM (inactive) | > 100 µM (inactive) | > 100 µM (inactive) |  | > 100 µM (inactive) |
| CC(=O)OCC1OC(Sc2ccccn2)C=CC1OC(C)=O (stereo not given) | > 100 µM (inactive) | > 100 µM (inactive) | > 100 µM (inactive) | > 100 µM (inactive) | > 100 µM (inactive) | > 100 µM (inactive) |  |  | > 100 µM (inactive) |
| Brc1ccc(N2C[N+](c3ccc(Br)cc3)=NC(c3ccccc3)=N2)cc1.[O-][Cl+3]([O-])([O-])[O-] | 45.2 µM (inactive) | 50.1 µM (inactive) | 59.8 µM (inactive) | > 100 µM (inactive) | > 100 µM (inactive) | 70.5 µM (inactive) | > 100 µM (inactive) |  | 25.1 µM (inactive) |
| COC(=O)/C(=C/c1ccc(OC)cc1)C(C(=O)O)=C1CCCCC1 | > 100 µM (inactive) | > 100 µM (inactive) | > 100 µM (inactive) | > 100 µM (inactive) |  | > 100 µM (inactive) | > 100 µM (inactive) | > 100 µM (inactive) |  |
| CN1C2(c3ccccc3)c3c(-c4ccccc4)sc(-c4ccccc4)c3C1(c1ccccc1)C1C(=O)N(c3ccccc3)C(=O)C12 (stereo not given) | > 100 µM (inactive) | > 100 µM (inactive) | > 100 µM (inactive) | > 100 µM (inactive) | > 100 µM (inactive) | > 100 µM (inactive) | > 100 µM (inactive) | > 100 µM (inactive) | > 100 µM (inactive) |
| Cc1cc(N)c(C)c2c1[nH]c1ccc(O)cc12 |  | > 100 µM (inactive) |  | 56.4 µM (inactive) | > 100 µM (inactive) |  | > 100 µM (inactive) |  | > 10 µM (inactive) |
| CN(C)/C=N\c1cc[nH]c(=O)n1 | > 100 µM (inactive) | > 100 µM (inactive) | > 100 µM (inactive) | > 100 µM (inactive) | > 100 µM (inactive) | > 100 µM (inactive) | > 100 µM (inactive) | > 100 µM (inactive) | > 100 µM (inactive) |
| CC(=O)O[C@H]1C(=O)[C@@]2(C)C(C(OC(=O)c3ccccc3)[C@]3(O)CC(OC(=O)C(O)C(NC(=O)c4ccc(C)cc4)c4ccccc4)C(C)=C1C3(C)C)[C@]1(OC(C)=O)CO[C@@H]1C[C@@H]2O (stereo not given in full) | 0.00424 µM (active) | < 0.0025 µM (active) | 0.0661 µM (active) | < 0.0025 µM (active) |  | 0.00305 µM (active) | 4.02 µM (inactive) |  | < 0.0025 µM (active) |
| COc1cc([C@H]2c3cc4c(cc3O[C@@]3(O)COC(=O)[C@@H]23)OCO4)cc(OC)c1OC |  | > 100 µM (inactive) | > 100 µM (inactive) | > 100 µM (inactive) | > 100 µM (inactive) | > 100 µM (inactive) | > 100 µM (inactive) | > 100 µM (inactive) | > 100 µM (inactive) |
